# According to ChEMBL document CHEMBL1123223, “New effective gonadotropin releasing hormone antagonists with minimal potency for histamine release in vitro” (J Med Chem, 1986):
# Experiments:
# [1] = target: T1, Gonadotropin-releasing hormone receptor (Rattus norvegicus) (UniProt P30969); assay: Inhibition of GnRH-mediated LH secretion by cultured pituitary cells; assay type: functional, cell-based; conditions: Pituitary gland cell
# T1 sequence (whole entry): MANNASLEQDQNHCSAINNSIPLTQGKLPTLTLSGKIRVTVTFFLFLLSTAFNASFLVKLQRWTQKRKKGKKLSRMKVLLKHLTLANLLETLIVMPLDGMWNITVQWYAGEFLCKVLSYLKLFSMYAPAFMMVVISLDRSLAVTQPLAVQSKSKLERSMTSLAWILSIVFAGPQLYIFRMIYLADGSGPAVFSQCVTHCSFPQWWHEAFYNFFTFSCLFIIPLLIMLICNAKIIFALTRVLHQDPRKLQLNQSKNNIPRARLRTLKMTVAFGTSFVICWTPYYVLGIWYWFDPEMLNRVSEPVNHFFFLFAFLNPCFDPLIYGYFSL
# [2] = species on record: Rattus norvegicus; assay: GnRH antagonistic dose of compound for 2 rats ovulation out of total 10 using anti-ovulatory assay in experiment 1; assay type: functional
# [3] = species on record: Rattus norvegicus; assay: Compound was tested in vitro for its ability to inhibit histamine release from rat mast cells.; assay type: functional; conditions: read-out: ED50 (the source's name)
# [4] = species on record: Rattus norvegicus; assay: Dissociation constant was determined in rat pituitary cells.; assay type: cell-based; conditions: pituitary gland cell
# [5] = species on record: Rattus norvegicus; assay: GnRH antagonistic dose of compound for 0 rats ovulation out of total 6 using anti-ovulatory assay in experiment 2; assay type: functional
smiles,measurement,setting,value
CC(=O)N[C@H](Cc1ccc2ccccc2c1)C(=O)N[C@H](Cc1ccc(Cl)cc1)C(=O)N[C@H](Cc1cccnc1)C(=O)N[C@@H](CO)C(=O)N[C@@H](CCCN=C(N)N)C(=O)N[C@H](Cc1c[nH]c2ccccc12)C(=O)N[C@@H](CC(C)C)C(=O)N[C@@H](CCCN=C(N)N)C(=O)N1CCC[C@H]1C(=O)N[C@H](C)C(=O)O,Relative potency,[1],0.44
same,ED100,[2],0.5 µg/kg
same,EC50,[3],2.1 µg/mL
same,Kd,[4],960 pM
same,ED100,[5],1 µg/kg
